Experimental findings from patent US8710089B2, “Triazole derivatives as ghrelin analogue ligands of growth hormone secretagogue receptors” (Zentaris GmbH, priority 2005, dated 2014) are described below.

The target in one assay is T1, human GHS-R 1a (Homo sapiens, UniProt Q92847).
T1 construct: expressed in transfected cells; host or cells: LLC PK-1 porcine renal epithelial cells (ECACC No. 86121112), isolated plasma membranes
In words: GHS-R 1a receptor-ligand binding assay (membrane preparations from transfected LLC PK-1 cells). The settings on record: displacement of 125I-His9-ghrelin (60 pM); membranes of LLC PK-1 cells transfected with human GHS-R 1a; mean of at least two independent experiments in triplicates. In a few lines:
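Membranes from LLC PK-1 cells expressing human GHS-R 1a incubated 60 min at 25 °C in 50 mM Tris pH 7.3, 5 mM MgCl2, 2.5 mM EDTA, bacitracin with 60 pM 125I-ghrelin and competitor; nonspecific binding with 10^-6 M ghrelin; filtration read-out.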
(In general: Displacement assays read how much labelled ligand stays bound in the presence of the test substance.)

Assay [1] deals with young-adult male Sprague-Dawley rats. Put plainly: Feeding behavior (food intake) of young-adult male rats. The class given is in vivo, rat (Sprague-Dawley). As to the method: V) Assaying the Feeding Behavior (Food Intake) of Young-Adult Male Rats
The impact of compounds of the invention being GHS receptor analogue ligands on the feeding behaviour, i.e. food intake, of young-adult male rats was assayed.
In principle, assaying the feeding behavior (food intake) of young-adult male rats was performed according to Torsello et al. (Eur. J. Pharmacol. 1998, 360: 123-129).
For the assay, young-adult male Sprague-Dawley rats (Charles River, Calco, Italy), weighing 200-250 g, were used.
Rats had 1 week of acclimation in individual home cages, and animal room conditions (22±2° C., 65% humidity, artificial light from 08.00 to 20.00 h). The following week, they were daily trained to mimic the experimental procedure. Rats maintained free access to dry pellets and tap water throughout the whole experimental period. At the end of training, rats were administered (around 10.00-11.00 a.m.) subcutaneously with the compounds to be tested (160 μg/kg body weight) and/or hexarelin (80 μg/kg body weight) and/or solvent [DMSO (0.4% of total volume), distilled water (4% of total volume), brought to the final volume with physiological saline].
Hexarelin was used to study the effects of the compounds to be tested on stimulated feeding behavior. Immediately after the injections, the animals were returned to their home cages, which contained a known amount of standard rat chow and ad libitum water. Every hour for the following 6 hours, the remaining food was carefully collected and weighed to the nearest 0.1 g. Food intake was normalized for the body weight of the rats and expressed as grams of food eaten per 100 g body weight of rats.
In the following table 4 results obtained for selected compounds of the invention are presented.

The subject of assay [2] is GH concentration in the plasma of male rat pups. In words: In vivo GH concentration in the plasma of male rat pups. Also on record: species or system rat (Sprague-Dawley). The settings on record: rat pup plasma. How it is done: IV) Assaying In Vivo GH Concentration in the Plasma of Male Rat Pups
GH plasma concentrations of male rat pubs were assayed to characterize the modulation effect (antagonistic or agonistic) of the compounds of the invention being GHS receptor analogue ligands.
In principle, assaying in vivo GH concentration in rat plasma was performed according to Torsello et al. (Eur. J. Pharmacol. 1998, 360: 123-129).
Male Sprague-Dawley rat pups (Charles River, Calco, Italy) were separated on postnatal day seven from their mothers and randomly redistributed to the dams, so that each one nurtured ten to twelve pups. On postnatal day ten, the pups were again separated from their mothers.
The compounds to be tested were dissolved in solvent [DMSO (0.4% of total volume), distilled water (4% of total volume), brought to the final volume with physiological saline].
One hour after separation from their mothers, the pups were given isovolumetric amounts of the compounds to be tested (160 μg/kg body weight s.c.) at time −10 min and then administered with hexarelin (80 μg/kg body weight s.c.) or solvent at time 0 min before being killed 15 min later by decapitation. Trunk blood was collected, immediately centrifuged and plasma samples were stored at −20° C. until assayed for the determination of GH concentrations.
Plasma GH concentrations were measured using a rat growth hormone enzyme immunoassay kit (SPIbio, France, cat. no. 589601) according to the manufacturer's instructions. Values are expressed in terms of NIDDK rat-GH-RP2 standard (potency 2 IU/mg) as ng/mL of plasma
The limit of detection calculated as the concentration producing 15% displacement of initial tracer was 0.5 ng/ml; intra-assay and inter-assay coefficient of variation are 4% (n=24) and 14% (n=9).
In the following table 3 results obtained for selected compounds of the invention are presented.

The mark [3] stands for this setting: compound 160 μg/kg s.c. + hexarelin 80 μg/kg s.c.
The mark [4] stands for this setting: compound alone, 160 μg/kg body weight s.c.
Setting [5] is: compound 160 μg/kg s.c. at -10 min + hexarelin 80 μg/kg s.c. at 0 min, killed 15 min later.
The mark [6] stands for this setting: compound alone 160 μg/kg body weight s.c. at -10 min, solvent at 0 min, killed 15 min later.

“And” between values parts separate entries of the source, which are not always exact repeats. Identical values can stand only once. Non-standard residues stand in square brackets, D forms with d. Residues, ends and D or L forms follow the SMILES beside them. dTrp(2-Me) = Cc1[nH]c2ccccc2c1C[C@@H](N)C(=O)O

The IC50 is the midpoint of a concentration-inhibition curve. Low values mean higher potency, high ones lower potency.

T1 sequence (Q92847 whole entry): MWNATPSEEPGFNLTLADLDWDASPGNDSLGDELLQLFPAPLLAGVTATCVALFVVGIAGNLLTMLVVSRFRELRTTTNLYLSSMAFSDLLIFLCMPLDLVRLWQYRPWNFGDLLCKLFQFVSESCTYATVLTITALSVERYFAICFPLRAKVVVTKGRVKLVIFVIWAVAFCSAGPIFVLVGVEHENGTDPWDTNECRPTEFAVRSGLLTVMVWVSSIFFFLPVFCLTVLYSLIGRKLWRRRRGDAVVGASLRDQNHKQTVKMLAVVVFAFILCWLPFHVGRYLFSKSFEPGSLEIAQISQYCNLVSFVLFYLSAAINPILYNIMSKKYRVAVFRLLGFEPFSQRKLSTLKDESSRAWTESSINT

As to `CC(C)(N)C(=O)N[C@H](Cc1c[nH]c2ccccc12)c1nnc(CCc2c[nH]c3ccccc23)n1CCc1c[nH]c2ccccc12` [compound 17, (R)—N-(1-(4,5-bis(2-(1H-indol-3-yl)ethyl)-4H-1,2,4-triazol-3-yl)-2-(1H-indol-3-yl)ethyl)-2-amino-2-methylpropanamide], at human GHS-R 1a, the IC50 was 156 nM. Besides, in assay [1] (setting [3]), the “Cumulative food intake (after 2 hours)” value was found to be 0.0501 ± 0.049 g food/100 g body weight and the “Cumulative food intake (after 6 hours)” value is 0.846 ± 0.411 g food/100 g body weight. Moreover, in assay [1] (setting [4]), the “Cumulative food intake (after 2 hours)” value is 0.001 ± 0.001 g food/100 g body weight and the “Cumulative food intake (after 6 hours)” value is 0.2661 ± 0.166 g food/100 g body weight.

On human GHS-R 1a, `COc1ccc(Cn2c(CCc3c[nH]c4ccccc34)nnc2[C@@H](Cc2c[nH]c3ccccc23)NC(=O)C2CNCCN2)c(OC)c1` (mixture of isomers) [compound 72] gave a half-maximal inhibitory concentration (IC50) of 32 nM. Also, in assay [1] (setting [3]), the “Cumulative food intake (after 2 hours)” value was found to be 0.634 ± 0.33 g food/100 g body weight and the “Cumulative food intake (after 6 hours)” value is listed as 0.746 ± 0.31 g food/100 g body weight. In assay [1] (setting [4]), the “Cumulative food intake (after 2 hours)” value was 0.008 ± 0.003 g food/100 g body weight and the “Cumulative food intake (after 6 hours)” value is given as 0.011 ± 0 g food/100 g body weight.

In the case of `CC(C)(N)C(=O)N[C@H](Cc1c[nH]c2ccccc12)c1nnc(Cc2ccccc2)n1Cc1ccc(F)cc1` [compound 30, (R)—N-(1-(4-(4-fluorobenzyl)-5-benzyl-4H-1,2,4-triazol-3-yl)-2-(1H-indol-3-yl)ethyl)-2-amino-2-methylpropanamide], the concentration for half-maximal inhibition (IC50) at human GHS-R 1a was found to be 171 nM. Besides, the “Cumulative food intake (after 2 hours)” value in assay [1] (setting [3]) turned out to be 1.350 ± 0.177 g food/100 g body weight; in assay [1] (setting [4]), 0.264 ± 0.244 g food/100 g body weight. The “Cumulative food intake (after 6 hours)” value in assay [1] (setting [3]) was found to be 1.449 ± 0.213 g food/100 g body weight; in assay [1] (setting [4]), 0.277 ± 0.246 g food/100 g body weight.

In turn, `COc1ccc(Cn2c(Cc3ccccc3)nnc2[C@@H](Cc2c[nH]c3ccccc23)NC(=O)C(C)(C)N)cc1` [compound 13, (R)—N-(1-(4-(4-methoxybenzyl)-5-benzyl-4H-1,2,4-triazol-3-yl)-2-(1H-indol-3-yl)ethyl)-2-amino-2-methylpropanamide] yielded a concentration for half-maximal inhibition (IC50) on human GHS-R 1a of 138 nM. In assay [1] (setting [3]), the “Cumulative food intake (after 2 hours)” value was 0.731 ± 0.318 g food/100 g body weight and the “Cumulative food intake (after 6 hours)” value is reported as 0.792 ± 0.337 g food/100 g body weight. Besides, in assay [1] (setting [4]), the “Cumulative food intake (after 2 hours)” value was 0.057 ± 0.057 g food/100 g body weight and the “Cumulative food intake (after 6 hours)” value is listed as 0.167 ± 0.167 g food/100 g body weight.

With `COc1ccc(Cn2c(CCc3ccccc3)nnc2[C@@H](Cc2c[nH]c3ccccc23)NC(=O)[C@H]2CCCCN2)cc1` [compound 49, (R)—N—((R)-1-(4-(4-methoxybenzyl)-5-phenethyl-4H-1,2,4-triazol-3-yl)-2-(1H-indol-3-yl)ethyl)piperidine-2-carboxamide], the “Cumulative food intake (after 2 hours)” value in assay [1] (setting [3]) was 0.057 ± 0.037 g food/100 g body weight; in assay [1] (setting [4]), 0.004 ± 0.004 g food/100 g body weight. In addition, the “Cumulative food intake (after 6 hours)” value in assay [1] (setting [3]) is 0.558 ± 0.212 g food/100 g body weight; in assay [1] (setting [4]), 0.004 ± 0.004 g food/100 g body weight.

Consider `COc1ccc(Cn2c(CCc3c[nH]c4ccccc34)nnc2[C@H](N)Cc2c[nH]c3ccccc23)c(OC)c1` [compound 74, (R)-1-(5-(2-(1H-indol-3-yl)ethyl)-4-(2,4-dimethoxybenzyl)-4H-1,2,4-triazol-3-yl)-2-(1H-indol-3-yl)ethanamine], for which the GH concentration in assay [2] (setting [5]) amounted to 194.564 ± 7.658 ng/mL; in assay [2] (setting [6]), 10.571 ± 0.791 ng/mL.

`COc1ccc(Cn2c(CCc3c[nH]c4ccccc34)nnc2[C@@H](Cc2c[nH]c3ccccc23)NC(=O)c2ccccn2)cc1` [compound 80, (R)—N-(1-(5-(2-(1H-indol-3-yl)ethyl)-4-(4-methoxybenzyl)-4H-1,2,4-triazol-3-yl)-2-(1H-indol-3-yl)ethyl)picolinamide] yielded an IC50 at human GHS-R 1a of 1.9 nM. Besides, in assay [1] (setting [3]), the “Cumulative food intake (after 2 hours)” value amounted to 0.475 ± 0.196 g food/100 g body weight and the “Cumulative food intake (after 6 hours)” value was determined as 0.733 ± 0.238 g food/100 g body weight. Further, in assay [1] (setting [4]), the “Cumulative food intake (after 2 hours)” value is 0.145 ± 0.143 g food/100 g body weight and the “Cumulative food intake (after 6 hours)” value was 0.346 ± 0.159 g food/100 g body weight.

As for `CC(C)(N)C(=O)N[C@H](Cc1c[nH]c2ccccc12)c1nnc(Cc2ccccc2)n1Cc1ccccn1` [compound 39, (R)—N-(1-(5-benzyl-4-(pyridin-2-ylmethyl)-4H-1,2,4-triazol-3-yl)-2-(1H-indol-3-yl)ethyl)-2-amino-2-methylpropanamide], the GH concentration in assay [2] (setting [5]) is 82.481 ± 11.530 ng/mL and 82.481 ± 11.53 ng/mL; in assay [2] (setting [6]), 5.509 ± 1.950 ng/mL and 5.509 ± 1.95 ng/mL.

Turning to `COc1ccc(Cn2c(CCc3ccccc3)nnc2[C@@H](Cc2c[nH]c3ccccc23)NC(=O)[C@@H]2CCCCN2)cc1` [compound 48, (S)—N—((R)-1-(4-(4-methoxybenzyl)-5-phenethyl-4H-1,2,4-triazol-3-yl)-2-(1H-indol-3-yl)ethyl)piperidine-2-carboxamide], the GH concentration in assay [2] (setting [5]) was determined as 145.946 ± 12.159 ng/mL; in assay [2] (setting [6]), 6.096 ± 2.091 ng/mL.

Consider `COc1ccc(Cn2c(CCc3c[nH]c4ccccc34)nnc2[C@@H](Cc2c[nH]c3ccccc23)NC(=O)c2ccccc2N)c(OC)c1` [compound 38, (R)—N-(1-(5-(2-(1H-indol-3-yl)ethyl)-4-(2,4-dimethoxybenzyl)-4H-1,2,4-triazol-3-yl)-2-(1H-indol-3-yl)ethyl)-2-aminobenzamide], for which the concentration for half-maximal inhibition (IC50) at human GHS-R 1a is 112 nM. In addition, in assay [1] (setting [3]), the “Cumulative food intake (after 2 hours)” value is 0.002 ± 0.002 g food/100 g body weight and the “Cumulative food intake (after 6 hours)” value turned out to be 0.478 ± 0.141 g food/100 g body weight. For the same molecule, in assay [1] (setting [4]), the “Cumulative food intake (after 2 hours)” value stood at 0.001 ± 0 g food/100 g body weight and the “Cumulative food intake (after 6 hours)” value was 0.076 ± 0.096 g food/100 g body weight.

As for `CC(C)(N)C(=O)N[C@H](Cc1c[nH]c2ccccc12)c1nnc(CCCc2c[nH]c3ccccc23)n1CCc1c[nH]c2ccccc12` [compound 24, (R)—N-(1-(4-(2-(1H-indol-3-yl)ethyl)-5-(3-(1H-indol-3-yl)propyl)-4H-1,2,4-triazol-3-yl)-2-(1H-indol-3-yl)ethyl)-2-amino-2-methylpropanamide], the IC50 on human GHS-R 1a is 29 nM. Also, in assay [1] (setting [3]), the “Cumulative food intake (after 2 hours)” value came out at 0.586 ± 0.252 g food/100 g body weight and the “Cumulative food intake (after 6 hours)” value was found to be 0.912 ± 0.359 g food/100 g body weight. Further, in assay [1] (setting [4]), the “Cumulative food intake (after 2 hours)” value is on record as 0.008 ± 0.008 g food/100 g body weight and the “Cumulative food intake (after 6 hours)” value came to 0.215 ± 0.200 g food/100 g body weight.

Take `Cc1[nH]c2ccccc2c1C[C@@H](NC(=O)[C@@H](N)Cc1cnc[nH]1)C(=O)N[C@@H](C)C(=O)N[C@@H](Cc1c[nH]c2ccccc12)C(=O)N[C@H](Cc1ccccc1)C(=O)N[C@@H](CCCCN)C(N)=O` [hexarelin, Hexarelin, reference compound] (H-H[dTrp(2-Me)]AW[dF]K-NH2): the GH concentration in assay [2] (hexarelin alone 80 μg/kg body weight s.c.) is 170.101 ± 13.226 ng/mL and 253.820 ± 12.268 ng/mL and 162.839 ± 21.095 ng/mL.
